Numbers after ± are expanded uncertainties.
Conditions: 101.33 kPa, Liquid; for viscosity: Capillary tube (Ostwald / Ubbelohde) method; for mass density: Pycnometric method

| Structure (SMILES) | viscosity (298.15 K) [mPa·s] | mass density (298.15 K) [kg/m3] | viscosity (308.15 K) [mPa·s] | mass density (308.15 K) [kg/m3] | viscosity (318.15 K) [mPa·s] | mass density (318.15 K) [kg/m3] |
| --- | --- | --- | --- | --- | --- | --- |
| COc1ccccc1 [anisole] | 0.989 ± 0.04 | 988.9 ± 0.8 | 0.906 ± 0.037 | 979.5 ± 0.8 | 0.84 ± 0.034 | 970.5 ± 0.8 |
| CCOc1ccccc1 [ethoxybenzene] | 1.223 ± 0.05 | 960.2 ± 0.6 | 0.982 ± 0.04 | 953.4 ± 0.8 | 0.823 ± 0.034 | 942.5 ± 0.9 |

— the NIST ThermoML archive (doi:10.1016/j.jct.2013.12.008)
